Structures can show the parent of a compound that is named as a salt.
## O=C(N[C@@H](CCCCNC1CC1c1ccccc1)C(=O)NCc1ccccc1)c1ccc(C(F)(F)F)cc1 (stereo partly drawn) (as salt: hydrochloride) [Example 9, 2-[N-(4-Trifluoromethylbenzenecarbonyl)]amino-6-(trans-2-phenylcyclopropan-1-amino)-N-benzylhexanamide Hydrochloride]
  melting point: 98 to 101 °C

## Cc1ccc(CNC(=O)[C@H](CCCCNC2CC2c2ccccc2)NC(=O)c2ccc(-c3ccccc3)cc2)cc1 (stereo partly drawn) (as salt: hydrochloride) [Example 12, 2-[N-(4-Phenylbenzenecarbonyl)]amino-6-(trans-2-phenylcyclopropan-1-amino)-N-(4-methylbenzyl)hexanamide Hydrochloride]
  melting point: 117 to 118 °C

## O=C(N[C@@H](CCCCNC1CC1c1ccccc1)C(=O)NCc1ccc(F)cc1)c1ccc(-c2ccccc2)cc1 (stereo partly drawn) (as salt: hydrochloride) [Example 13, 2-[N-(4-Phenylbenzenecarbonyl)]amino-6-(trans-2-phenylcyclopropan-1-amino)-N-(4-fluorobenzyl)hexanamide Hydrochloride]
  melting point: 95 to 96 °C

## O=C(N[C@@H](CCCCNC1CC1c1ccccc1)C(=O)NCc1ccc(-c2ccccc2)cc1)c1ccc(-c2ccccc2)cc1 (stereo partly drawn) (as salt: hydrochloride) [Example 14, 2-[N-(4-Phenylbenzenecarbonyl)]amino-6-(trans-2-phenylcyclopropan-1-amino)-N-(4-phenylbenzyl)hexanamide Hydrochloride]
  melting point: 139 to 140 °C

## Cc1cccc(CNC(=O)[C@H](CCCCNC2CC2c2ccccc2)NC(=O)c2ccc(-c3ccccc3)cc2)c1 (stereo partly drawn) (as salt: hydrochloride) [Example 16, 2-[N-(4-Phenylbenzenecarbonyl)]amino-6-(trans-2-phenylcyclopropan-1-amino)-N-(3-methylbenzyl)hexanamide Hydrochloride]
  melting point: 101 to 103 °C

## O=C(N[C@@H](CCCCNC1CC1c1ccccc1)C(=O)NCc1cccc(C(F)(F)F)c1)c1ccc(-c2ccccc2)cc1 (stereo partly drawn) (as salt: hydrochloride) [Example 19, 2-[N-(4-Phenylbenzenecarbonyl)]amino-6-(trans-2-phenylcyclopropan-1-amino)-N-(3-trifluoromethylbenzyl)hexanamide Hydrochloride]
  melting point: 129 to 130 °C

Reference: patent US9388123B2, “LSD1-selective inhibitor having lysine structure” (KYOTO UNIVERSITY, priority 2012, dated 2016)
